# Test results as given in paper PMC12295306, “Gut Microbial Postbiotics as Potential Therapeutics for Lymphoma: Proteomics Insights of the Synergistic Effects of Nisin and Urolithin B Against Human Lymphoma Cells” (International Journal of Molecular Sciences, 2025).
# Key:
# [1] = system: HKB-11 human lymphoma cells; assay: Alamar Blue antiproliferative assay, HKB-11; assay type: cell-based; details: HKB-11, 72 h, single postbiotics, GraphPad Prism nonlinear regression; for IC50: read-out: IC50 (concentration required to inhibit 50% of cell growth)
# Procedure: The cell viability of the HKB-11, Hs 313.T, and HS-5 cells after treatment with different concentrations of the seven different postbiotics, including SCFA salts (magnesium acetate, sodium propionate, and sodium butyrate), UA and UB, purine nucleoside (inosine), and bacteriocin (N), was determined using the Alamar Blue assay as per the method described earlier. Briefly, 100 μL of cells was cultured in 96-well plates at a 3 × 10^5 cells/mL seeding density. After 24 h, the cells were treated with 16,000 µM of each postbiotic except for the urolithins, which were applied at 500 µM using a 1:2 serial dilution across a 10-point dose–response curve, followed by a 72 h incubation. A positive control using doxorubicin was prepared at a concentration of 4 μM, and an untreated control with 0.1% DMSO was added to every plate. At the end of the incubation period, the culture media were removed, and 100 μL of a 0.1 mg/mL Alamar Blue solution (resazurin, prepared as a stock solution at 1 mg/mL in freshly made PBS, followed by a 1:10 dilution with serum-free media) was added to each well. The fluorescence levels were assessed using a microplate spectrophotometer (BMG CLARIOstar, Mornington, VIC, Australia) with an excitation wavelength of 555 nm and emission measurement at 595 nm. The compounds were tested in triplicate, with the untreated control taken as 100% cell viability.
# Data were collected and managed using MS Office Excel and GraphPad Prism for statistical analyses and visualisation. Data collection and analyses were carried out in triplicate, and the outcomes were presented as the mean ± standard deviation. Statistical significance between the mean values was determined at p ≤ 0.05 employing a two-way ANOVA. Tukey and Dunnett’s tests were utilised within GraphPad Prism software to perform nonlinear regression and multiple comparisons. Furthermore, GraphPad Prism software computed the IC50 value (representing the drug concentration required to achieve a 50% cell growth inhibition). The experimental groups in the proteomics study were compared statistically using unpaired t-tests, assuming equal variances. Candidate proteins were selected based on an absolute log2 fold change ≥ 0.58 and a Q-value ≤ 0.05. Enrichment analysis was subsequently conducted using Ingenuity Pathway Analysis (IPA), applying a significance threshold of adjusted Q ≤ 0.05 to identify functionally enriched pathways, focusing on those with an absolute z-score of ≥1.
# [2] = system: HKB-11 lymphoma cells; assay: ROS production, H2DCFDA assay; assay type: cell-based, human; details: 4 h
# Procedure: Briefly, HKB-11 lymphoma cells (2.5 × 10^5 cells/mL) were cultured in a 96-well plate, allowed to adhere overnight, and treated with 20 μM H2DCFDA for 45 min to assess ROS levels. The dye solution was removed, and cells were washed with 1× buffer. Next, the cells were treated with N (8000 μM), N (4000 μM), UB (500 μM), UB (250 μM), N/UB (3500 μM), N/UB (1750 μM), N/UB (5750 μM), N/UB (2875 μM), Dox (4 μM), and tert-butyl hydroperoxide (TBHP) (150 μM) and then incubated at 37 °C for 4 h. Finally, the plate was immediately read at Ex/Em = 485/535 nm using a microplate spectrophotometer (BMG CLARIOstar, VIC, Australia). The fold change in ROS production was determined relative to the untreated control (cells treated with the supplement buffer according to the manufacturer’s protocol).
# [3] = system: HKB-11 lymphoma cells; assay: Flow cytometry apoptosis profile, Annexin V-CF Blue / 7-AAD; assay type: cell-based, human; details: HKB-11, 4 µM, 24 h; p ≤ 0.0001
# Procedure: The HKB-11 cells were cultured in T75 cell culture flasks with an initial density of 1 × 10^6 cells per 10 mL at 37 °C in the presence of 5% CO2 for 24 h. The following day, the cell culture media was removed from each flask and replaced with fresh FBS-containing media. […] An FBS-containing medium was used as the untreated control. The flasks were then incubated at 37 °C with 5% CO2 for 24 h. Then, the cell culture media from each flask were collected. Subsequently, trypsin (0.25% w/v) was applied to the flasks for 4 min at 37 °C. The trypsin reaction was neutralised with an equal volume of 10% FBS serum-containing media, and the cells were combined with the previously collected media. The cell pellets were obtained by centrifuging at 500× g for 5 min at room temperature (RT). This procedure was repeated by suspending the cell pellets in 1 mL of PBS each time. The collected cell pellets from each treatment were immediately suspended in 500 μL of 1× binding buffer and gently mixed by pipetting. Annexin V-CF Blue (5 μL) and 7-AAD (5 μL) staining solutions were added to 100 μL of the cell suspension. The stained cells were incubated for 15 min in the dark at RT, after which 400 μL of a 1× assay buffer was added to each cell suspension. Subsequently, the cells were examined using a flow cytometer (Novocyte 3000, ACEA Biosciences Inc., San Diego, CA, USA), and data analysis and processing were performed using NovoExpress software (version 1.5.0, ACEA Biosciences Inc., CA, USA). In the initial step, the cells were gated on forward and side scatter modes to exclude cell aggregates and debris near the origin. The cells were then gated on dot plots, where Annexin V-CF in Pacific Blue was plotted against 7-AAD fluorescence in PerCP. Quadrants were positioned relative to the untreated control, indicating live cells ([…] and −7-AAD) appearing in the lower-left quadrant, early apoptotic cells (+Annexin V and −7-AAD) in the lower-right quadrant, late apoptotic cells (+Annexin V and +7-AAD) in the upper-right quadrant, and necrotic cells (−Annexin V and +7-AAD) in the upper-left quadrant. For statistical analyses and visualisation, the percentage data of cells in each quadrant after different treatments (n = 3) were exported to GraphPad Prism software (version 9.0, San Diego, CA, USA).
smiles,measurement,setting,value
"CCCC(=O)[O-].[Na+] [Sodium Butyrate, sodium butyrate]",IC50,[1],2.02 mM
"CC(=O)[O-].CC(=O)[O-].[Mg+2] [Magnesium Acetate, magnesium acetate]",IC50 (concentration required to inhibit 50% of cell growth),[1],could not be calculated
"CCC(=O)[O-].[Na+] [Sodium Propionate, sodium propionate]",IC50,[1],14.6 mM
"O=c1[nH]cnc2c1ncn2[C@@H]1O[C@H](CO)[C@@H](O)[C@H]1O [Inosine, inosine]",IC50 (concentration required to inhibit 50% of cell growth),[1],could not be calculated
"COc1cccc2c1C(=O)c1c(O)c3c(c(O)c1C2=O)C[C@@](O)(C(=O)CO)C[C@@H]3O[C@H]1C[C@H](N)[C@H](O)[C@H](C)O1 [Dox, doxorubicin, reference compound]",ROS production (positive control),"[2]; HKB-11, 4 μM",induced high ROS production
same,Apoptosis induction (positive control),[3],significantly induced apoptosis
same,Necrotic cell death compared to the untreated control and other treatment groups,[3],markedly higher proportion of necrotic cell death
"O=c1oc2cc(O)ccc2c2ccc(O)cc12 [UA, Urolithin A]",IC50,[1],0.384 mM
"CC(C)(C)OO [TBHP, tert-butyl hydroperoxide, reference compound]",ROS production (positive control),"[2]; HKB-11, 150 μM",induced high ROS production
